Reference: patent publication US5013757A, “Physiologically active substance Tan-931, its derivatives, their production and use” (Takeda Chemical Industries, Ltd., priority 1988, dated 1991)

Tests used:
human placenta aromatase = target: T1, human placenta aromatase (Homo sapiens, UniProt P11511); assay: In vitro human placenta microsome aromatase inhibitory activity; assay type: biochemical; settings: androstenedione 4 μM, 37° C., 1 hour
T1 construct: The resulting pellet was used as a microsome fraction; from tissue; host or cells: human placenta, microsome fraction (148,000×g pellet)
T1 sequence (P11511 1-503): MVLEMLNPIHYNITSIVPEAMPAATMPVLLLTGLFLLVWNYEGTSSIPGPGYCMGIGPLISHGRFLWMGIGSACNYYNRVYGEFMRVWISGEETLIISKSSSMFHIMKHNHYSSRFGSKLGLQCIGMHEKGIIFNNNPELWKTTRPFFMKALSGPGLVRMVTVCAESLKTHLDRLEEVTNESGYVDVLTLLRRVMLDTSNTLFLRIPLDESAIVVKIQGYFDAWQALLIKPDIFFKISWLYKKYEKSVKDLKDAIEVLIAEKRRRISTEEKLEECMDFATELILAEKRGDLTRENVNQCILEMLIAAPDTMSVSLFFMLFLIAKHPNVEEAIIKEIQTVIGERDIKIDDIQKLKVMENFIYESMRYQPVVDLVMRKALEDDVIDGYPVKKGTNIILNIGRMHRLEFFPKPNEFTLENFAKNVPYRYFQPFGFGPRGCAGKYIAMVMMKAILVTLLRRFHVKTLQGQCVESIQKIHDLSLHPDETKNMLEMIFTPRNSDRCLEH
Source text: (§1) The following Experiments specifically illustrate in vitro human placenta aromatase inhibitory activity and inhibition of estrogen synthesis in the rat by the compounds of the present invention.
Preparation of human placenta microsome
The method of F. A. Thompson et al. [J. Biol. Chem., 249, 5364 (1974)] was partly modified. Namely, the placenta was washed with 0.15 M KCl which was previously cooled to remove the attached membrane and large blood vessels and then sufficiently and finely cut with scissors. To the finely cut tissue was added 2 ml of cold 0.02 M phosphate buffer containing 0.25M sucrose (pH 7.4) per 1 g of the tissue and the mixture was homogenized with Polytron homogenizer (30 second×3, in ice). Then, the mixture was centrifuged at 800×g for 10 minutes and the supernatant was centrifuged at 20,000×g for 30 minutes and further at 148,000×g for 45 minutes. The resulting pellet was used as a microsome fraction. The microsome obtained was suspended in 1 ml of the above phosphate buffer per 10 g of the placenta and stored at -80° C. Upon use, it was diluted 5 to 6 times.
Determination of aromatase activity and inhibitory activity
The method of F. A. Thompson et al. [see above] was partly modified as follows.
A reaction mixture (225 μl ) containing 4-androstene-3,17-dione (4 μM ), 1,2 [^3 H]-androstenedione (140,000 dpm), NADPH (550 μM ) and the above microsome (20 μl ) and a solution containing an inhibitor or not (5 μl ) was incubated at 37° C. for 1 hour. According to this determination, [^3 H]-H2 O was formed by aromatization of androstenedione. Then, the reaction mixture was extracted with chloroform (0.5 ml) to separate layers and the aqueous layer obtained was treated with 5% activated carbon (0.25 ml) to remove the free steroid. After high-speed centrifugation, to the supernatant (0.2 ml) was added scintillator (3 ml) and radioactivity was determined with a liquid scintillation counter. By comparing the result obtained by addition of an inhibitor with that of a control sample wherein the reaction was carried out without addition of any inhibitor, an inhibitory rate (%) was calculated. The effectiveness was expressed by the concentration which was required for inhibiting 50% of the enzyme activity at the substrate (androstenedione) concentration of 4 μM

[1] = test system: estrogen synthesis in rat; assay: In vivo inhibition of estrogen synthesis in PMSG-stimulated young female rats; design: species or system SD rats (female, 19 days old)
Protocol: as §1
In vivo inhibition of estrogen synthesis by the compound 1 (TAN-931) was studied by the following experiment.
Five young SD rats (female, 19 days old) were used per one group. The rats of test groups were administered the compound suspended in 0.2% gum arabic-physiological saline solution subcutaneously at the doses of 25, 50 and 100 mg/kg for 4 days at 24-hour intervals. The rats of control groups (Control 1 and 2) were administered 0.2 ml of 0.2% gum arabic-physiological saline solution. After administration of the compound on the third day after initiation of the test, a single dose of 10 U/rat (s.c.) of pregnant mare's serum gonadotropin (PMSG) was administered to the rats of test groups and Control 2. […] After centrifugation, the plasma was obtained and the plasma estradiol-17 β level was determined by radio immunoassay. Further, the uterus and ovarium were removed from the rat, freed from connective tissue and the like and weighed, respectively. As the control compound for estimation of the pharmacological activity, 4-hydroxyandrostenedione (4-OHA) was used.

Acute toxicity in mice = settings: mouse, in vivo, sc; subcutaneous, male mice (4 weeks old)
Source text: Thus, the compounds (I-1) have a potent aromatase inhibitory activity and, therefore, they can be advantageously used for prevention and treatment of estrogen dependent diseases such as breast cancer, endometriosis, endometrium cancer, benign breast diseases, prostatomegaly and the like as well as for control of conception. Further, toxicity of the compounds (I-1) of the present invention is low.

Solubility of TAN-931 = assay type: physicochemical
[2] = test system: various enzymes which pertain to biosynthesis of steroid hormones; settings: background statement; cited from earlier work
[3] = 25 mg/kg/day s.c., 4 days, PMSG
[4] = 50 mg/kg/day s.c., 4 days, PMSG
[5] = 100 mg/kg/day s.c., 4 days, PMSG

| Structure (SMILES) | IC50 (human placenta aromatase) | other results |
| --- | --- | --- |
| O=Cc1cc(C(=O)N2CCOCC2)cc(O)c1C(=O)c1c(O)cccc1O [Compound 11] | 16.4 µM |  |
| C=CCNC(=O)c1cc(O)c(C(=O)c2c(O)cccc2O)c(C=O)c1 [Compound 9] | 15.2 µM |  |
| O=Cc1cc(C(=O)N2CCCC2)cc(O)c1C(=O)c1c(O)cccc1O [Compound 12] | 23.4 µM |  |
| O=Cc1cc(C(=O)O)cc(O)c1C(=O)c1c(O)cccc1O [Compound 1] | 17.2 µM | Plasma estradiol 17-B level [1, 3]: 312.8 ± 192.4 pg/mL; Tissue weight Ovarium [1, 3]: 24.2 ± 6.2 mg; Tissue weight Uterus [1, 3]: 108.4 ± 15.6 mg; Plasma estradiol 17-B level [1, 4]: 80.8 ± 64.2 pg/mL; Tissue weight Ovarium [1, 4]: 16.4 ± 6.4 mg; Tissue weight Uterus [1, 4]: 89.4 ± 30.8 mg; Plasma estradiol 17-B level [1, 5]: 50.2 ± 23.5 pg/mL; Tissue weight Ovarium [1, 5]: 14.5 ± 1.5 mg; Tissue weight Uterus [1, 5]: 66.3 ± 38.0 mg; blood estrogen level raised by stimulation due to PMSG administration ([1]; result in words): significantly lowered; LD50 (Acute toxicity in mice): ≥ 800 mg/kg; Solubility (Solubility of TAN-931; chloroform, diethyl ether): Slightly soluble; Solubility (Solubility of TAN-931; dimethylsulfoxide (DMSO), methanol, ethanol, acetone): Soluble; Solubility (Solubility of TAN-931; water, n-hexane): Insoluble |
| CNC(=O)c1cc(O)c(C(=O)c2c(O)cccc2O)c(C=O)c1 [Compound 6] | 21.3 µM |  |
| COc1cccc(O)c1C(=O)c1c(O)cc(C(=O)O)cc1C=O [Compound 16] | 135 µM |  |
| COC(=O)c1cc(O)c(C(=O)c2c(O)cccc2O)c(C=O)c1 [Compound 2] | 22.1 µM |  |
| CN(C)CCNC(=O)c1cc(O)c(C(=O)c2c(O)cccc2O)c(C=O)c1 [Compound 14] | 16.9 µM |  |
| CCCCCCNC(=O)c1cc(O)c(C(=O)c2c(O)cccc2O)c(C=O)c1 [Compound 8] | 17.6 µM |  |
| CCCCCCOC(=O)c1cc(O)c(C(=O)c2c(O)cccc2O)c(C=O)c1 [Compound 5] | 32.3 µM |  |
| CCC1(c2ccc(N)cc2)CCC(=O)NC1=O (centres unmarked) [aminoglutethimide] |  | inhibition of enzymes of steroid hormone biosynthesis [2]: inhibits various enzymes |
| O=Cc1cc(C(=O)OCc2ccccc2)cc(O)c1C(=O)c1c(O)cccc1O [Compound 4] | 206 µM |  |
| COCOC(=O)c1cc(O)c(C(=O)c2c(O)cccc2O)c(C=O)c1 [Compound 3] | 12.4 µM |  |
| O=Cc1cc(C(=O)O)cc(O)c1C(=O)c1c(O)ccc(Cl)c1O [Compound 27] | 14.3 µM |  |
| COc1cc(C(=O)N(C)C)cc(C=O)c1C(=O)c1c(O)cccc1O [Compound 19] | 18.3 µM |  |
| CC(C)NC(=O)c1cc(O)c(C(=O)c2c(O)cccc2O)c(C=O)c1 [Compound 10] | 25.6 µM |  |
| COc1cc(C(=O)O)cc(C=O)c1C(=O)c1c(O)cccc1O [Compound 15] | 24 µM |  |
| CN(C)C(=O)c1cc(O)c(C(=O)c2c(O)cccc2O)c(C=O)c1 [Compound 7] | 14.6 µM |  |
| Cc1ccc(NC(=O)c2cc(O)c(C(=O)c3c(O)cccc3O)c(C=O)c2)cc1 [Compound 13] | 16.1 µM |  |
| COc1cccc(O)c1C(=O)c1c(C=O)cc(C(=O)O)cc1OC [Compound 17] | 96.6 µM |  |
| C[C@]12CCC(=O)C(O)=C1CC[C@@H]1[C@@H]2CC[C@]2(C)C(=O)CC[C@@H]12 [Compound 4-OHA, 4-hydroxyandrostenedione, reference compound] |  | Plasma estradiol 17-B level [1, 5]: 149.6 ± 76.7 pg/mL; Tissue weight Ovarium [1, 5]: 28.4 ± 7.9 mg; Tissue weight Uterus [1, 5]: 85.9 ± 13.0 mg; Weight gain [1, 5]: 22.2 ± 1.5 g |
